Experimental data published in PMC12030706, “Novel ^177Lu-Labeled [Thz^14]Bombesin(6–14) Derivatives with Low Pancreas Accumulation for Targeting Gastrin-Releasing Peptide Receptor-Expressing Cancer” (Pharmaceuticals, 2025).
Numbered stars: 1 amine (or outer) side, 2 acyl side, 3 side chain; on linkers, the order of the positions; unused ones are H or OH. Square brackets hold non-standard residues; d marks the D form. Peptide text beside a SMILES is read from it. * marks the point of attachment. DOTA = O=C(O)CN1CCN(CC(=O)O)CCN(CC(=O)*)CCN(CC(=O)O)CC1; NMeH = CN[C@@H](Cc1c[nH]cn1)C(=O)O; X1 = O=C(CN1CCC(N[*:1])CC1)[*:2]; Tle = CC(C)(C)[C@H](N)C(=O)O; Thz = O=C(O)[C@@H]1CSCN1

Tests used:
[1] = system: PC-3 tumor-bearing NRG mouse; experiment: Longitudinal SPECT/CT imaging in PC-3 tumor-bearing mice; type: in vivo, mice (NRG); conditions: SPECT/CT images
Description: The PC-3 tumor-bearing mice were sedated (2.5% isoflurane in O2) and injected with ^177Lu-labeled ligands (15–32 MBq) through a lateral caudal tail vein. […] At each time point, a 5 min CT scan was obtained using 615 μA and 60 kV parameters for localization and attenuation, followed by 2 × 30 min static SPECT scans acquired in list mode with an energy window centered around 208 keV. The MILabs U-SPECT II reconstruction software (version 8.00) was used to reconstruct data, and the images were decay corrected to the time of injection with PMOD v 3.402 (PMOD Technologies GmbH, Fallanden, Switzerland).

[2] = Ex vivo biodistribution in PC-3 tumor-bearing mice; conditions: mouse; for tissue to tissue ratio at 1 h / tissue to tissue ratio at 4 h / tissue to tissue ratio at 24 h / tissue to tissue ratio at 72 h / tissue to tissue ratio at 120 h: male, NOD.Cg-Rag1^tm1Mom Il2rg^tm1Wjl/SzJ (NRG), total radioactivity; for tissue to tissue ratio at 4 h / tissue uptake at 4 h: 4 h post-injection; for tissue to tissue ratio at 24 h / tissue uptake at 24 h: 24 h post-injection; for tissue to tissue ratio at 72 h / tissue uptake at 72 h: 72 h post-injection; for tissue to tissue ratio at 120 h / tissue uptake at 120 h: 120 h post-injection
Description: SPECT/CT imaging experiments were performed using an MILabs (Houten, The Netherlands) U-SPECT-II/CT scanner with a custom-made ultra-high-sensitivity big mouse collimator (2 mm pinhole size) following previously reported procedures. […] Male NOD.Cg-Rag1^tm1Mom Il2rg^tm1Wjl/SzJ (NRG) mice were used in these experiments because of their immunodeficient characteristics and excellent radiation tolerance. Mice were anaesthetized and subcutaneously implanted with 5 × 10^6 PC-3 prostate cancer cells (100 µL; 1:1 PBS/Matrigel) behind the left shoulder. SPECT/CT imaging and biodistribution studies were performed once the tumors reached a diameter of 5–8 mm, typically after approximately 4 weeks of growth.
For ex vivo biodistribution studies, the mice were injected with ~2–6 MBq of the radioligand. […] Blocking study was conducted at 1 h post-injection via co-injection of the radioligand with 100 μg of [D-Phe^6,Leu-NHEt^13,des-Met^14]Bombesin(6–14). Organs/tissues of interested were collected, weighed, and measured using an automatic gamma counter.

[3] = tumor/blood, Tumor/blood uptake ratio
[4] = tumor/kidney, Tumor/kidney uptake ratio
[5] = tumor/muscle, Tumor/muscle uptake ratio
[6] = tumor/pancreas, Tumor/pancreas uptake ratio
[7] = PC-3 tumor, Uptake in PC-3 tumor
[8] = adrenal glands, Uptake in adrenal glands

CC(C)C[C@H](NC(=O)[C@H](Cc1cnc[nH]1)N(C)C(=O)CNC(=O)[C@@H](NC(=O)[C@H](C)NC(=O)[C@H](Cc1c[nH]c2ccccc12)NC(=O)[C@H](Cc1c[nH]cn1)NC(=O)[C@@H](Cc1ccccc1)NC(=O)CN1CCC(NC(=O)CN2CCN(CC(=O)O)CCN(CC(=O)O)CCN(CC(=O)O)CC2)CC1)C(C)(C)C)C(=O)N1CSC[C@H]1C(N)=O [[^177Lu]Lu-LW01142, metal not drawn] ({DOTA}-[X1][dF]HWA[Tle]G[NMeH]L[Thz]-NH2)
excretion pathway [1]: excreted mainly via the renal pathway
tissue to tissue ratio at 1 h ([2]; tumor/blood, Tumor/blood uptake ratio, 1 h blocked (co-injected with 100 µg [D-Phe6,Leu-NHEt13,des-Met14]Bombesin(6-14))): 3.91 ± 0.87
tissue to tissue ratio at 1 h ([2]; tumor/blood, Tumor/blood uptake ratio, 1 h post-injection): 8.08 ± 0.92
tissue to tissue ratio at 4 h [2, 3]: 162 ± 52
tissue to tissue ratio at 24 h [2, 3]: 841 ± 162
tissue to tissue ratio at 72 h [2, 3]: 1620 ± 500
tissue to tissue ratio at 120 h [2, 3]: 1800 ± 724
tissue to tissue ratio at 1 h ([2]; tumor/kidney, Tumor/kidney uptake ratio, 1 h blocked (co-injected with 100 µg [D-Phe6,Leu-NHEt13,des-Met14]Bombesin(6-14))): 0.7 ± 0.15
tissue to tissue ratio at 1 h ([2]; tumor/kidney, Tumor/kidney uptake ratio, 1 h post-injection): 1.95 ± 0.04
tissue to tissue ratio at 4 h [2, 4]: 2.14 ± 0.26
tissue to tissue ratio at 24 h [2, 4]: 2.88 ± 0.84
tissue to tissue ratio at 72 h [2, 4]: 7.34 ± 1.83
tissue to tissue ratio at 120 h [2, 4]: 7.46 ± 1.11
tissue to tissue ratio at 1 h ([2]; tumor/muscle, Tumor/muscle uptake ratio, 1 h blocked (co-injected with 100 µg [D-Phe6,Leu-NHEt13,des-Met14]Bombesin(6-14))): 25.2 ± 10.1
tissue to tissue ratio at 1 h ([2]; tumor/muscle, Tumor/muscle uptake ratio, 1 h post-injection): 60.1 ± 5.97
tissue to tissue ratio at 4 h [2, 5]: 454 ± 53.3
tissue to tissue ratio at 24 h [2, 5]: 672 ± 161
tissue to tissue ratio at 72 h [2, 5]: 736 ± 189
tissue to tissue ratio at 120 h [2, 5]: 588 ± 92.8
tissue to tissue ratio at 1 h ([2]; tumor/pancreas, Tumor/pancreas uptake ratio, 1 h blocked (co-injected with 100 µg [D-Phe6,Leu-NHEt13,des-Met14]Bombesin(6-14))): 2.79 ± 0.69
tissue to tissue ratio at 1 h ([2]; tumor/pancreas, Tumor/pancreas uptake ratio, 1 h post-injection): 3.06 ± 0.45
tissue to tissue ratio at 4 h [2, 6]: 7.53 ± 0.35
tissue to tissue ratio at 24 h [2, 6]: 6.78 ± 0.88
tissue to tissue ratio at 72 h [2, 6]: 6.18 ± 0.6
tissue to tissue ratio at 120 h [2, 6]: 4.08 ± 1
tissue uptake at 1 h ([2]; PC-3 tumor, 100 ug, Uptake in PC-3 tumor, 1 h blocked (co-injected with 100 µg [D-Phe6,Leu-NHEt13,des-Met14]Bombesin(6-14))): 5.03 ± 0.43 %ID/g
tissue uptake at 1 h ([2]; PC-3 tumor, Uptake in PC-3 tumor, 1 h post-injection): 13.4 ± 1.48 %ID/g
tissue uptake at 4 h [2, 7]: 11.8 ± 2.24 %ID/g
tissue uptake at 24 h [2, 7]: 7.07 ± 1.23 %ID/g
tissue uptake at 72 h [2, 7]: 4.18 ± 0.6 %ID/g
tissue uptake at 120 h [2, 7]: 2.25 ± 0.71 %ID/g
tissue uptake at 1 h ([2]; adrenal glands, 100 ug, Uptake in adrenal glands, 1 h blocked (co-injected with 100 µg [D-Phe6,Leu-NHEt13,des-Met14]Bombesin(6-14))): 0.75 ± 0.33 %ID/g
tissue uptake at 1 h ([2]; adrenal glands, Uptake in adrenal glands, 1 h post-injection): 1.43 ± 0.5 %ID/g
tissue uptake at 4 h [2, 8]: 0.59 ± 0.06 %ID/g
tissue uptake at 24 h [2, 8]: 0.41 ± 0.08 %ID/g
tissue uptake at 72 h [2, 8]: 0.2 ± 0.05 %ID/g
tissue uptake at 1 h ([2]; blood, 100 ug, Uptake in blood, 1 h blocked (co-injected with 100 µg [D-Phe6,Leu-NHEt13,des-Met14]Bombesin(6-14))): 1.34 ± 0.35 %ID/g
tissue uptake at 1 h ([2]; blood, Uptake in blood, 1 h post-injection): 1.67 ± 0.21 %ID/g
tissue uptake at 4 h ([2]; blood, Uptake in blood): 0.08 ± 0.01 %ID/g
tissue uptake at 24 h ([2]; blood, Uptake in blood): 0.01 %ID/g
tissue uptake at 1 h ([2]; bone, 100 ug, Uptake in bone, 1 h blocked (co-injected with 100 µg [D-Phe6,Leu-NHEt13,des-Met14]Bombesin(6-14))): 0.13 ± 0.03 %ID/g
tissue uptake at 4 h ([2]; bone, Uptake in bone): 0.03 ± 0.01 %ID/g
tissue uptake at 24 h ([2]; bone, Uptake in bone): 0.03 ± 0.01 %ID/g
tissue uptake at 72 h ([2]; bone, Uptake in bone): 0.03 ± 0.01 %ID/g
tissue uptake at 120 h ([2]; bone, Uptake in bone): 0.02 ± 0.01 %ID/g
tissue uptake at 1 h ([2]; brain, 100 ug, Uptake in brain, 1 h blocked (co-injected with 100 µg [D-Phe6,Leu-NHEt13,des-Met14]Bombesin(6-14))): 0.03 ± 0.01 %ID/g
tissue uptake at 1 h ([2]; brain, Uptake in brain, 1 h post-injection): 0.03 ± 0.01 %ID/g
tissue uptake at 4 h ([2]; brain, Uptake in brain): 0.01 %ID/g
tissue uptake at 1 h ([2]; fat, 100 ug, Uptake in fat, 1 h blocked (co-injected with 100 µg [D-Phe6,Leu-NHEt13,des-Met14]Bombesin(6-14))): 0.14 ± 0.04 %ID/g
tissue uptake at 1 h ([2]; fat, Uptake in fat, 1 h post-injection): 0.11 ± 0.04 %ID/g
tissue uptake at 4 h ([2]; fat, Uptake in fat): 0.02 ± 0.01 %ID/g
tissue uptake at 24 h ([2]; fat, Uptake in fat): 0.01 %ID/g
tissue uptake at 72 h ([2]; fat, Uptake in fat): 0.01 %ID/g
tissue uptake at 1 h ([2]; heart, 100 ug, Uptake in heart, 1 h blocked (co-injected with 100 µg [D-Phe6,Leu-NHEt13,des-Met14]Bombesin(6-14))): 0.43 ± 0.14 %ID/g
tissue uptake at 1 h ([2]; heart, Uptake in heart, 1 h post-injection): 0.45 ± 0.06 %ID/g
tissue uptake at 24 h ([2]; heart, Uptake in heart): 0.02 ± 0.01 %ID/g
tissue uptake at 72 h ([2]; heart, Uptake in heart): 0.02 %ID/g
tissue uptake at 120 h ([2]; heart, Uptake in heart): 0.01 %ID/g
tissue uptake at 1 h ([2]; kidneys, 100 ug, Uptake in kidneys, 1 h blocked (co-injected with 100 µg [D-Phe6,Leu-NHEt13,des-Met14]Bombesin(6-14))): 7.44 ± 1.71 %ID/g
tissue uptake at 24 h ([2]; kidneys, Uptake in kidneys): 2.64 ± 0.94 %ID/g
tissue uptake at 72 h ([2]; kidneys, Uptake in kidneys): 0.6 ± 0.17 %ID/g
tissue uptake at 120 h ([2]; kidneys, Uptake in kidneys): 0.3 ± 0.07 %ID/g
